In ChEMBL document CHEMBL1123787, “Radioiodinated p-iodoclonidine: a high-affinity probe for the alpha 2-adrenergic receptor” (J Med Chem, 1987) one finds IC50 data, which are given here for 2 molecules.

This assay concerns the target T1, Adrenergic receptor alpha-2 (Homo sapiens, UniProt P08913+P18825+P18089).
T1 sequence (P08913 whole entry): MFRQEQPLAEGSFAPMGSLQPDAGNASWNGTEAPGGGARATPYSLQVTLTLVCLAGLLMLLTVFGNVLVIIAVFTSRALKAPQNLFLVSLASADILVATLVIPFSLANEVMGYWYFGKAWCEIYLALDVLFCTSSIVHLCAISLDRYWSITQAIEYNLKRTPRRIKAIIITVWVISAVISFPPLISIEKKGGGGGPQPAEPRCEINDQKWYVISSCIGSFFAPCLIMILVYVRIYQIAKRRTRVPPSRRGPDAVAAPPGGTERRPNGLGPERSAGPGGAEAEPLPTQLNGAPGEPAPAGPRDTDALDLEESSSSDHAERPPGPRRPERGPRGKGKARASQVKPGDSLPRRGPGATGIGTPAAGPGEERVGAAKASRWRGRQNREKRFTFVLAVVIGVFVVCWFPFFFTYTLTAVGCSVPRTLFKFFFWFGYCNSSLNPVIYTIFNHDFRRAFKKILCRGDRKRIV
T1 sequence (P18825 whole entry): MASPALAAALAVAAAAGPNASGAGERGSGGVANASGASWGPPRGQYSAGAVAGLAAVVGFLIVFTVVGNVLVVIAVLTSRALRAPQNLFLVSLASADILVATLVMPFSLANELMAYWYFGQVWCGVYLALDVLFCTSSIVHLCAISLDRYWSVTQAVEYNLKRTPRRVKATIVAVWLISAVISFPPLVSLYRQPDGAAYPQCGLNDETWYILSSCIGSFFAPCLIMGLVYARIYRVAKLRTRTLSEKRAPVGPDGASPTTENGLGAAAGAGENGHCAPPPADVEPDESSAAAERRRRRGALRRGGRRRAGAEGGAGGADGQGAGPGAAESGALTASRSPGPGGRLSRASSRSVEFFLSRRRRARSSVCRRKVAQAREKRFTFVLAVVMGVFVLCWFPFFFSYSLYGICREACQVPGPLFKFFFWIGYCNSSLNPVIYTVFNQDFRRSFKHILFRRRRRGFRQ
T1 sequence (P18089 whole entry): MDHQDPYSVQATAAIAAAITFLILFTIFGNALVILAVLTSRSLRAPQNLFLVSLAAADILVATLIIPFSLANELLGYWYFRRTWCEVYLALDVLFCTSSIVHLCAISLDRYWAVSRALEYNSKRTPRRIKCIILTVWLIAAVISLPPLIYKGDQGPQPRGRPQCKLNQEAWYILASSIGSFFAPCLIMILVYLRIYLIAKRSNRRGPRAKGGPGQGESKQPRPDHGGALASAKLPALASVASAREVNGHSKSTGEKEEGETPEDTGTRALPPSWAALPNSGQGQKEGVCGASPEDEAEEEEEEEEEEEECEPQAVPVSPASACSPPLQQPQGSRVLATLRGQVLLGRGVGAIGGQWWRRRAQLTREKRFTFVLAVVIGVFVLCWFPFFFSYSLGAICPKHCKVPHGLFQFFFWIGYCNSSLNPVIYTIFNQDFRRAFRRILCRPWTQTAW

On to `O=[N+]([O-])c1cc(Cl)c(N=C2NCCN2)c(Cl)c1`, for which the IC50 was determined as 10 µM.
For `Clc1cc(N=NN2CCCC2)cc(Cl)c1NC1=NCCN1`, the IC50 came to 2 µM.

One may read the IC50 as the concentration that inhibits the measured activity by half. A lower IC50 goes with inhibition by little substance.
